# Measured values as given in ChEMBL document CHEMBL1148223, “Isolation and phytotoxicity of apocarotenoids from Chenopodium album” (2004).
# Active and inactive are the calls of the source. The calls are words filed in the database; no cut-off is given here.
# Legend:
# Assay type in all cases: functional
# Lactuca sativa [1] = experiment: Reduction of Lactuca sativa seeds germination at 100 uM daily for 5 days relative to control; design: Activity: scale not given: the % may be the effect or the level left; conditions: for inhibition at 100 µM: Lactuca sativa, 120 h
# Lactuca sativa [2] = experiment: Reduction of Lactuca sativa length development; design: scale not given: the % may be the effect or the level left
# Lactuca sativa [3] = experiment: Reduction of Lactuca sativa root length at 0.1 uM relative to control; design: scale not given: the % may be the effect or the level left
# Lactuca sativa [4] = experiment: Reduction of Lactuca sativa shoot length at 0.1 uM relative to control; design: scale not given: the % may be the effect or the level left
smiles,measurement,setting,value
CC(=O)/C=C/C=C(C)/C=C/[C@H]1C(C)=C[C@H](O)CC1(C)C,Activity,Lactuca sativa [1],20%
CC(=O)/C=C/[C@H]1C(C)=CC(=O)CC1(C)C,inhibition at 100 µM,Lactuca sativa [1],30%
CC(=O)/C=C/[C@@]1(O)C(C)=CC(=O)CC1(C)C,Activity,Lactuca sativa [2],30%
CC1=CC(=O)CC(C)(C)[C@@]1(O)/C=C/[C@@H](C)O [BLUMENOL A],Activity,Lactuca sativa [2],30%
CC1=CC(=O)CC(C)(C)[C@@]1(O)/C=C/C(C)=C/CO,Activity,Lactuca sativa [1],Active
CC(=O)/C=C/[C@H]1C(C)=C[C@H](O)CC1(C)C,inhibition at 100 µM,Lactuca sativa [1],30%
CC(=O)C=C=C1C(C)(C)C[C@H](O)C[C@@]1(C)O,Activity,Lactuca sativa [3],20%
same,Activity,Lactuca sativa [4],30%
CC(=O)/C=C/C=C(C)/C=C/[C@@]1(O)C(C)=CC(=O)CC1(C)C,Activity,Lactuca sativa [1],20%
